# Measurements: publication PMC7763444, “Bioactive Steroids from the Red Sea Soft Coral Sinularia polydactyla” (Marine Drugs, 2020)
# Assays:
# [1] = Stability of the isolated metabolite during structure elucidation; type: physicochemical; conditions: degraded prior to the acquisition of heteronuclear NMR spectra
# Text: Compound 2 shared quite similar spectroscopic features with 1. In particular, all signals attributed to the steroidal nucleus, with the most prominent being the signals of the two angular methyls H3-18 and H3-19 (δH 1.09 and 0.94, respectively), the methyl at C-4 (δH 1.04), the oxymethine H-3 (δH 3.10), and the two olefinic protons H-9 and H-11 (δH 5.27 and 5.41, respectively), were also evident in the ^1H NMR spectrum of compound 2 (Table 1). The most significant difference observed was the replacement of the 1,2-disubstituted double bond in the side chain of 1 by a 1,1-disustituted double bond (δH 4.63 and 4.70) in the side chain of 2. The correlations observed in the COSY spectrum of 2 identified the relevant spin systems; however, metabolite 2 was proven unstable and degraded prior to the acquisition of heteronuclear NMR spectra. Nevertheless, the high structural similarity of 2 with compound 1 renders safe the proposed identification of 2 as (9E)-3β-hydroxy-4α,24-dimethyl-8,9-seco-5α-cholesta-9(11),24(28)-dien-8-one.
# [2] = tested on: ELAM (E-selectin, CD62E) on HUVEC; experiment: Cell-surface ELISA CD62E (E-selectin, ELAM) after TNFα stimulation; type: cell-based, human; conditions: 10 µM; 30 min pre-treatment, then TNFα for 4 h
# Protocol: TNFα stimulates NFκB (nuclear factor kappa-light-chain-enhancer of activated B cells) and thus E-selectin (CD62E, ELAM). Endothelial cells were pre-treated for 30 min with the tested compounds and then activated with TNFα for 4 h. Curcumin, which inhibits activation of NF-κB and thus inhibits expression and activity of the COX-2 gene induced by TNFα [21], was used as a positive control, decreasing ELAM production to 25% at 10 µM.
# An enzyme-linked immunosorbent assay (ELISA) was used to detect the levels of the cell adhesion molecule ELAM in HUVEC cells after 30 min of incubation with the tested compounds and 4 h of stimulation with TNFα, as previously described.
# the cell surface of endothelial cells that were pretreated with 10 µM compounds for 30 min and
# subsequently stimulated with 10 ng/ml TNFα for 4 h. Data are means ± SDs ( n = 3).
# (1 picture or pasted object on this page, not shown here)
# [3] = tested on: human umbilical vein endothelial cells (HUVEC); experiment: Migration scratch assay; type: cell-based; conditions: 20 µM, 20 h of treatment
# Protocol: Subsequently, we examined whether the isolated steroids could influence angiogenesis or inflammation in vitro. […] Only non-cytotoxic concentrations in HUVECs were used for the scratch assay.
# The scratch test was performed with HUVEC cells and evaluated after 20 h of treatment, as previously reported.
# [4] = tested on: HeLa (human cervical cancer cell line); experiment: Cytotoxicity, resazurin assay, 72 h; conditions: read-out: Cytotoxicity (IC50) HeLa
# Protocol: (§1) Initially, the cytotoxic activity of metabolites 3–7, 9–12, 14–20, and 22–26 was evaluated in human cancer and normal cells after 72 h of treatment. Human cervical cancer (HeLa), human breast adenocarcinoma (MCF7) cell lines, and human normal fibroblasts (BJ) were used for the screening.
# (§2) The tested compounds were dissolved in DMSO to afford 10 mM stock solutions. Human cervical carcinoma (HeLa) and human breast adenocarcinoma (MCF7) cell lines were purchased from European Collection of Authenticated Cell Cultures (ECACC, Salisbury, UK) and cultivated in Dulbecco’s Modified Eagle Medium (DMEM) (Merck, Darmstadt, Germany), as previously reported [27]. […] All cells were maintained in a humidified CO2 incubator at 37 °C using the standard trypsinization procedure twice or three times a week. […] All cells were maintained in a humidified CO2 incubator at 37 °C using the standard trypsinization procedure twice or three times a week.
# (§3) In cytotoxicity assays, cancer cells were treated with six different concentrations of each tested compound for 72 h. Cells were stained with resazurin and IC50 values were calculated as previously reported [26]. Triplicates from at least three independent experiments were used.
# [5] = tested on: MCF7 (human breast adenocarcinoma cell line); experiment: Cytotoxicity, resazurin assay, 72 h; conditions: MCF7, 72 h, read-out: Cytotoxicity (IC50) MCF7
# Protocol: as §1, §2, §3
# [6] = Cytotoxicity, resazurin assay, 72 h; conditions: human, BJ cells (human normal fibroblasts)
# Protocol: as §1, §3
# [7] = tested on: neuron-like SH-SY5Y cells; experiment: Neuroprotection in 3-NPA-induced model of Huntington's disease, Calcein AM viability; type: cell-based, human; conditions: 20 mM 3-NPA alone, 48 h
smiles,measurement,setting,value
"C=C(CC[C@@H](C)[C@H]1CC[C@H]2C(=O)CC[C@H]3[C@H](C)[C@@H](O)CC[C@]3(C)/C=C/C[C@]12C)C(C)C [Compound 2, (9E)-3β-hydroxy-4α,24-dimethyl-8,9-seco-5α-cholesta-9(11),24(28)-dien-8-one]",Stability,[1],unstable
COc1cc(/C=C/C(=O)CC(=O)/C=C/c2ccc(O)c(OC)c2)ccc1O [Curcumin],ELAM production (decreased to),[2],25%
"C=C(CCC(C)C1CCC2C3C(OC(C)=O)C=C4CC(O)CCC4(CO)C3CCC12C)C(C)C (stereo not drawn) [Compound 22, 7β-acetoxy-24-methyl-cholesta-5,24(28)-dien-3β,19-diol]",Inhibition of HUVEC migration,[3],partially inhibited
same,IC50,[4],7.5 ± 0.1 µM
same,IC50,[5],8.9 µM
same,IC50 at 72 h,[6],14.8 ± 5.8 µM
"O=C(O)CC[N+](=O)[O-] [Compound 3-NPA, 3-nitropropionic acid]",Decrease in cell viability,[7],approx. 70%
